Test results published in the NIST ThermoML archive (doi:10.1016/j.jct.2012.04.005).
Several values for one entry are separate records, joined by “and”; a condition that tells them apart may be missing. Identical values can stand only once.

Details: isochoric method

CCOCC [diethyl ether]
Liquid
Details	mass density
416.1 K	534.6 kg/m3
425.19 K	517.3 kg/m3
437.14 K	485.2 kg/m3
450.6 K	441.5 kg/m3
450.77 K	440.8 kg/m3
459.61 K	394.8 kg/m3
464.79 K	348.2 kg/m3
466.12 K	212.6 kg/m3
466.47 K	310.8 kg/m3
466.66 K	233.7 kg/m3
466.75 K	296.7 kg/m3
466.8 K	288.3 kg/m3
466.81 K	278.7 kg/m3
466.82 K	275.7 kg/m3
466.83 K	255 kg/m3 and 260.7 kg/m3
466.85 K	261.2 kg/m3

Details	mass density [kg/m3]
416.3 K, 1625 kPa, Liquid	534.6
416.83 K, 1747 kPa, Liquid	534.6
416.93 K, 1693 kPa, Liquid	534.6
417.26 K, 1783 kPa, Liquid	534.6
418.11 K, 2014 kPa, Liquid	534.6
420.91 K, 2770 kPa, Liquid	534.6
421.09 K, 2823 kPa, Liquid	534.6
422.05 K, 3084 kPa, Liquid	534.6
425.27 K, 1926 kPa, Liquid	517.3
425.69 K, 4074 kPa, Liquid	534.6
425.75 K, 2146 kPa, Liquid	517.3
425.83 K, 2193 kPa, Liquid	517.3
425.96 K, 4149 kPa, Liquid	534.6
426.06 K, 2271 kPa, Liquid	517.3
426.78 K, 2602 kPa, Liquid	517.3
427.43 K, 4552 kPa, Liquid	534.6
432.78 K, 5984 kPa, Liquid	534.6
432.99 K, 6050 kPa, Liquid	534.6
433.93 K, 6306 kPa, Liquid	534.6
437.48 K, 2381 kPa, Liquid	485.2
437.61 K, 2392 kPa, Liquid	485.2
437.68 K, 2382 kPa, Liquid	485.2
437.79 K, 2430 kPa, Liquid	485.2
438.72 K, 2616 kPa, Liquid	485.2
438.85 K, 7649 kPa, Liquid	534.6
439.14 K, 7729 kPa, Liquid	534.6
439.97 K, 7955 kPa, Liquid	534.6
445.62 K, 3997 kPa, Liquid	485.2
445.85 K, 4046 kPa, Liquid	485.2
446.57 K, 4191 kPa, Liquid	485.2
448.81 K, 10345 kPa, Liquid	534.6
449.04 K, 10408 kPa, Liquid	534.6
449.96 K, 10662 kPa, Liquid	534.6
450.97 K, 2954 kPa, Liquid	441.5
450.98 K, 2969 kPa, Liquid	440.8
451.08 K, 2998 kPa, Liquid	440.8
451.17 K, 3017 kPa, Liquid	440.8
451.49 K, 3039 kPa, Liquid	441.5
451.69 K, 3088 kPa, Liquid	441.5
452.31 K, 3185 kPa, Liquid	440.8
452.82 K, 3254 kPa, Liquid	441.5
459.55 K, 6842 kPa, Liquid	485.2
459.83 K, 6900 kPa, Liquid	485.2
460.03 K, 3345 kPa, Liquid	394.8
460.23 K, 3396 kPa, Liquid	394.8
460.36 K, 3392 kPa, Liquid	394.8
460.5 K, 13585 kPa, Liquid	534.6
460.64 K, 7064 kPa, Liquid	485.2
460.64 K, 13628 kPa, Liquid	534.6
461.45 K, 3512 kPa, Liquid	394.8
461.55 K, 13877 kPa, Liquid	534.6
461.58 K, 4562 kPa, Liquid	441.5
461.85 K, 4602 kPa, Liquid	441.5
461.98 K, 4645 kPa, Liquid	440.8
462.66 K, 4726 kPa, Liquid	441.5
463.06 K, 4812 kPa, Liquid	440.8
465.09 K, 3597 kPa, Liquid	348.2
465.58 K, 3635 kPa, Liquid	348.2
465.68 K, 3649 kPa, Liquid	348.2
465.84 K, 3662 kPa, Liquid	348.2
466.13 K, 3555 kPa, Gas	212.6
466.67 K, 3560 kPa, Gas	233.7
466.68 K, 3578 kPa, Gas	212.6
466.76 K, 3609 kPa, Liquid	296.7
466.85 K, 3565 kPa, Gas	260.7
466.87 K, 3577 kPa, Liquid	275.7
466.88 K, 3561 kPa, Liquid	261.2
466.88 K, 3641 kPa, Liquid	310.8
466.89 K, 3586 kPa, Gas	255
467.09 K, 3625 kPa, Liquid	278.8
467.09 K, 3678 kPa, Liquid	310.8
467.29 K, 3582 kPa, Liquid	261.2
467.29 K, 3591 kPa, Gas	233.7
467.29 K, 3602 kPa, Liquid	275.7
467.29 K, 3605 kPa, Gas	255
467.39 K, 3612 kPa, Gas	255
467.47 K, 3597 kPa, Gas	233.7
467.49 K, 3648 kPa, Liquid	296.7
467.5 K, 3591 kPa, Liquid	261.2
467.57 K, 3699 kPa, Liquid	310.8
467.62 K, 3606 kPa, Gas	260.7
467.69 K, 3637 kPa, Liquid	288.3
467.96 K, 3736 kPa, Liquid	310.8
468.29 K, 3629 kPa, Gas	233.7
468.29 K, 3662 kPa, Gas	255
468.39 K, 3632 kPa, Liquid	261.2
468.52 K, 3635 kPa, Gas	212.6
468.69 K, 3669 kPa, Gas	260.7
468.69 K, 3721 kPa, Liquid	278.8
468.69 K, 3780 kPa, Liquid	310.8
468.83 K, 3719 kPa, Liquid	278.8
468.94 K, 3681 kPa, Liquid	275.7
469.49 K, 3681 kPa, Gas	212.6
469.89 K, 3738 kPa, Liquid	275.7
469.89 K, 3776 kPa, Liquid	278.8
470.22 K, 4019 kPa, Liquid	348.2
470.71 K, 16287 kPa, Liquid	534.6
470.75 K, 3929 kPa, Liquid	296.7
471.09 K, 16390 kPa, Liquid	534.6
471.25 K, 9234 kPa, Liquid	485.2
471.29 K, 4110 kPa, Liquid	348.2
471.59 K, 9306 kPa, Liquid	485.2
471.69 K, 16551 kPa, Liquid	534.6
472.29 K, 9719 kPa, Liquid	485.2
472.58 K, 4780 kPa, Liquid	394.8
473.16 K, 3968 kPa, Liquid	288.3
473.49 K, 4095 kPa, Liquid	296.7
473.49 K, 4886 kPa, Liquid	394.8
474.18 K, 4037 kPa, Liquid	288.3
477.4 K, 7063 kPa, Liquid	440.8
478.46 K, 7226 kPa, Liquid	440.8
478.97 K, 10850 kPa, Liquid	485.2
479.25 K, 10911 kPa, Liquid	485.2
479.29 K, 4255 kPa, Liquid	261.2
479.79 K, 4580 kPa, Liquid	310.8
480.04 K, 11078 kPa, Liquid	485.2
480.08 K, 4398 kPa, Liquid	288.3
480.2 K, 11129 kPa, Liquid	485.2
480.44 K, 4322 kPa, Liquid	296.7
480.44 K, 11179 kPa, Liquid	485.2
480.83 K, 4665 kPa, Liquid	310.8
481.03 K, 4460 kPa, Liquid	288.3
481.43 K, 11386 kPa, Liquid	485.2
487.13 K, 6550 kPa, Liquid	394.8
488.12 K, 6673 kPa, Liquid	394.8
490.82 K, 9157 kPa, Liquid	440.8
491.84 K, 9329 kPa, Liquid	440.8
492.58 K, 13642 kPa, Liquid	485.2
492.82 K, 13695 kPa, Liquid	485.2
493.6 K, 13857 kPa, Liquid	485.2
499.04 K, 6021 kPa, Liquid	310.8
499.15 K, 8032 kPa, Liquid	394.8
500.02 K, 6096 kPa, Liquid	310.8
500.21 K, 8166 kPa, Liquid	394.8
504.02 K, 15987 kPa, Liquid	485.2
504.28 K, 16044 kPa, Liquid	485.2
505.05 K, 16203 kPa, Liquid	485.2
517.61 K, 10294 kPa, Liquid	394.8
518.47 K, 10403 kPa, Liquid	394.8
533.2 K, 12288 kPa, Liquid	394.8
534.36 K, 12440 kPa, Liquid	394.8
554.38 K, 14968 kPa, Liquid	394.8
555.38 K, 15098 kPa, Liquid	394.8
574.32 K, 17455 kPa, Liquid	394.8
575.32 K, 17595 kPa, Liquid	394.8
